Measured values from patent US20090181898A1, “ABUSE-RESISTANT A[…]” (SHIRE LLC, priority 2002, published 2009).

Experiments:
[1] = molecular target: T1, human recombinant norepinephrine transport binding sites (NET) (Homo sapiens, UniProt P23975); test: Radioligand binding assay, norepinephrine transporter (NovaScreen)
T1 construct: NovaScreen, Hanover, Md; (contract laboratory that ran the assay)

stimulant abusers = test: Abuse liability of intravenous L-lysine-d-amphetamine in stimulant abusers; conditions: IV
rats [2] = test: Horizontal locomotor activity after oral administration; format: in vivo, Sprague-Dawley rats; conditions: for Peak of activity (Counts per 0.2 h) / Time of Last Count Above 200 per 0.2 h / Total Activity Counts / Total Activity Counts Above Baseline: rats, oral gavage 6 mg/kg
[3] = Oral bioavailability at escalating doses (LC/MS/MS); conditions: rat; for AUC(0-inf): in vivo, po; for F (fraction of intact L-lysine-d-amphetamine absorbed): oral
rats [4] = test: Locomotor activity after intranasal administration with and without CMC; format: in vivo, Sprague-Dawley rats
Text: The CMC drug mixtures were suspended thoroughly before each dose was delivered.

anesthetized dog = test: Cardiovascular effects following intravenous injection in the anesthetized dog
[5] = L-lysine-d-amphetamine 50 mg, d-amphetamine 20 mg
[6] = rats, intranasal 1.0 mg/kg, 1 h

T1 sequence (P23975 whole entry): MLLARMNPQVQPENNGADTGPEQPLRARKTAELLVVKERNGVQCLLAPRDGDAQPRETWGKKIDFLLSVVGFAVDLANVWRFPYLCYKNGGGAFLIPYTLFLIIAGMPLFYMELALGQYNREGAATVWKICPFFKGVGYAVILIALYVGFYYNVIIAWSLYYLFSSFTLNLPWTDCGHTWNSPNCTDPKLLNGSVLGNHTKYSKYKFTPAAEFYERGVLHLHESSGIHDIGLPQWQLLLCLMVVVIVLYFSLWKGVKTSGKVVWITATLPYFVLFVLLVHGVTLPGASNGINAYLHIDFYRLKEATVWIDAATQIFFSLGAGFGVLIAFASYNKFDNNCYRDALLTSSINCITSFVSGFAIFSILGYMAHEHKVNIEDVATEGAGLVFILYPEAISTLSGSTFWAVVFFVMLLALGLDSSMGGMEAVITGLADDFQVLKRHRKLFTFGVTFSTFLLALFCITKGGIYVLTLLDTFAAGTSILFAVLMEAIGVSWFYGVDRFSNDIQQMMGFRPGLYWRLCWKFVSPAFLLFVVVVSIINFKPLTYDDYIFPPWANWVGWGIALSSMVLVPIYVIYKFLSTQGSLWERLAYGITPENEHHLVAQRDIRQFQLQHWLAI

CC(Cc1ccccc1)NC(=O)C(N)CCCCN [L-lysine-d-amphetamine, 2,6-diaminohexanoic acid-(1-methyl-2-phenylethyl)-amide]
inhibition at 10 µM ([1]; 10^−5 mol/L): 13.9%
inhibition at 0.1 µM ([1]; 10^−7 mol/L): -11.8%
inhibition at 0.001 µM ([1]; 10^−9 mol/L): 8.15%
Specific binding to norepinephrine transport binding sites ([1]; 10^−9 to 10^−5 M): did not bind
Activity ([1]; NE Transporter, radioligand [3H]-Nisoxetine, 10^−9 to 10^−5 M): No (No activity is defined as producing between −20% and 20% inhibition of radioligand binding (Novascreen).)
Euphoria or amphetamine-like subjective effects (stimulant abusers; 50 mg): did not produce euphoria or amphetamine-like subjective effects
Mean maximum response on Subject Liking VAS vs placebo (stimulant abusers; [5]): not greater than placebo
Subjects (of 9) who would take the treatment again (stimulant abusers; [5]): one
Increase of total HLA activity counts over those induced by d-amphetamine (rats [2]; rat, oral, 6 mg/kg, three experiments (5, 8, 12 h)): 11-41%
Peak of activity (Counts per 0.2 h) (rats [2]; 5 h experiment): 318 Counts per 0.2 h
Time of Last Count Above 200 per 0.2 h (rats [2]; 5 h experiment): 5 h
Total Activity Counts (rats [2]; 5 h experiment): 6417
Total Activity Counts Above Baseline (rats [2]; 5 h experiment): 5902
Peak of activity (Counts per 0.2 h) (rats [2]; 12 h experiment): 256 Counts per 0.2 h
Time of Last Count Above 200 per 0.2 h (rats [2]; 12 h experiment): 8.6 h
Total Activity Counts (rats [2]; 12 h experiment): 8423
Total Activity Counts Above Baseline (rats [2]; 12 h experiment): 7487
AUC(0-inf) ([3]; 3 mg/kg): 331 ng·h/mL
AUC(0-inf) ([3]; 6 mg/kg): 1180 ng·h/mL
AUC(0-inf) ([3]; 12 mg/kg): 5170 ng·h/mL
AUC(0-inf) ([3]; 60 mg/kg): 8460 ng·h/mL
F (fraction of intact L-lysine-d-amphetamine absorbed) ([3]; 3 mg/kg): 7.2%
F (fraction of intact L-lysine-d-amphetamine absorbed) ([3]; 6 mg/kg): 12.8%
F (fraction of intact L-lysine-d-amphetamine absorbed) ([3]; 12 mg/kg): 24.6%
F (fraction of intact L-lysine-d-amphetamine absorbed) ([3]; 60 mg/kg): 9.3%
Increase in activity over baseline compared to activity for d-amphetamine dosed animals (rats [4]; rat, intranasal, 1.0 mg/kg): 34%
Percent Amp (activity above baseline relative to Amp) (rats [4]; [6]): 35%
Total Activity Counts (1 h) (rats [4]; [6]): 408
Total Activity Counts Above Baseline (rats [4]; [6]): 237
Increase in mean BP (anesthetized dog; dog, IV, approximately 30 minutes after injection): 20-50%
DAP % Change (anesthetized dog; iv 0.5 mg/kg, Time 0): 0%
DAP diastolic arterial pressure (anesthetized dog; iv 0.5 mg/kg, Time 0): 51 mmHg
LVP % Change (anesthetized dog; iv 0.5 mg/kg, Time 0): 0%
LVP left ventricular pressure (anesthetized dog; iv 0.5 mg/kg, Time 0): 86 mmHg
MAP % Change (anesthetized dog; iv 0.5 mg/kg, Time 0): 0%
MAP mean arterial pressure (anesthetized dog; iv 0.5 mg/kg, Time 0): 64 mmHg
SAP % Change (anesthetized dog; iv 0.5 mg/kg, Time 0): 0%
SAP systolic arterial pressure (anesthetized dog; iv 0.5 mg/kg, Time 0): 84 mmHg
DAP % Change (anesthetized dog; iv 0.5 mg/kg, Time 5): 3%
DAP diastolic arterial pressure (anesthetized dog; iv 0.5 mg/kg, Time 5): 52 mmHg
LVP % Change (anesthetized dog; iv 0.5 mg/kg, Time 5): 2%
LVP left ventricular pressure (anesthetized dog; iv 0.5 mg/kg, Time 5): 87 mmHg
MAP % Change (anesthetized dog; iv 0.5 mg/kg, Time 5): 3%
MAP mean arterial pressure (anesthetized dog; iv 0.5 mg/kg, Time 5): 66 mmHg
SAP % Change (anesthetized dog; iv 0.5 mg/kg, Time 5): 4%
SAP systolic arterial pressure (anesthetized dog; iv 0.5 mg/kg, Time 5): 87 mmHg
DAP % Change (anesthetized dog; iv 0.5 mg/kg, Time 15): 1%
DAP diastolic arterial pressure (anesthetized dog; iv 0.5 mg/kg, Time 15): 51 mmHg
LVP % Change (anesthetized dog; iv 0.5 mg/kg, Time 15): 11%
LVP left ventricular pressure (anesthetized dog; iv 0.5 mg/kg, Time 15): 95 mmHg
MAP % Change (anesthetized dog; iv 0.5 mg/kg, Time 15): 5%
MAP mean arterial pressure (anesthetized dog; iv 0.5 mg/kg, Time 15): 67 mmHg
SAP % Change (anesthetized dog; iv 0.5 mg/kg, Time 15): 11%
SAP systolic arterial pressure (anesthetized dog; iv 0.5 mg/kg, Time 15): 93 mmHg
DAP % Change (anesthetized dog; iv 0.5 mg/kg, Time 25): 8%
DAP diastolic arterial pressure (anesthetized dog; iv 0.5 mg/kg, Time 25): 55 mmHg
LVP % Change (anesthetized dog; iv 0.5 mg/kg, Time 25): 22%
LVP left ventricular pressure (anesthetized dog; iv 0.5 mg/kg, Time 25): 105 mmHg
MAP % Change (anesthetized dog; iv 0.5 mg/kg, Time 25): 15%
MAP mean arterial pressure (anesthetized dog; iv 0.5 mg/kg, Time 25): 73 mmHg
SAP % Change (anesthetized dog; iv 0.5 mg/kg, Time 25): 25%
SAP systolic arterial pressure (anesthetized dog; iv 0.5 mg/kg, Time 25): 104 mmHg
DAP % Change (anesthetized dog; iv 0.5 mg/kg, Time 30): 14%
DAP diastolic arterial pressure (anesthetized dog; iv 0.5 mg/kg, Time 30): 58 mmHg
LVP % Change (anesthetized dog; iv 0.5 mg/kg, Time 30): 26%
LVP left ventricular pressure (anesthetized dog; iv 0.5 mg/kg, Time 30): 108 mmHg
MAP % Change (anesthetized dog; iv 0.5 mg/kg, Time 30): 21%
MAP mean arterial pressure (anesthetized dog; iv 0.5 mg/kg, Time 30): 77 mmHg
SAP % Change (anesthetized dog; iv 0.5 mg/kg, Time 30): 28%
SAP systolic arterial pressure (anesthetized dog; iv 0.5 mg/kg, Time 30): 107 mmHg
DAP % Change (anesthetized dog; iv 1.0 mg/kg, Time 0): 0%
DAP diastolic arterial pressure (anesthetized dog; iv 1.0 mg/kg, Time 0): 55 mmHg
LVP % Change (anesthetized dog; iv 1.0 mg/kg, Time 0): 0%
LVP left ventricular pressure (anesthetized dog; iv 1.0 mg/kg, Time 0): 108 mmHg
MAP % Change (anesthetized dog; iv 1.0 mg/kg, Time 0): 0%
MAP mean arterial pressure (anesthetized dog; iv 1.0 mg/kg, Time 0): 74 mmHg
SAP % Change (anesthetized dog; iv 1.0 mg/kg, Time 0): 0%
